# Where two headings read alike, the source gives them in different places.
# Key:
# [1] = test system: osteoblasts and chondrocytes; experiment: toxicity to osteoblasts and chondrocytes; assay type: cell-based
# β-catenin [2] = experiment: Immunocytochemistry of β-catenin expression and localization in ATDC5 cells; assay type: cell-based, Murine; settings: 24 hours treatment, ICC
# Protocol: (§1) The ATDC5 cell (Murine constant cell line) was cultured in the DMEM (Dulbecco's modified Eagle's medium, Gibco, Grand Island, N.Y.) containing 5% Fetal Bovine Serum (FBS) and 1% penicillin/streptomycin under conditions of 37° C. and 5% CO2.
# Drugs (here are 5,6-dichloroindirubin-3′-methoxime, 5-methoxylindirubin-3′-oxime) were treated for 24 hours when the cells were securely attached to the cover glass that was placed in the 12 well plate at a density of 2.5×10^4 cells per well. Cells were cleaned with phosphoric acid buffer solution and fixed at room temperature for 20 minutes by adding 4% paraformaldehyde, and then a protein expressed in the cells was observed through the process of permeabilization, blocking and immunofluorescence.
# FIG. 6 is a photograph confirming the β-catenin concentration in the ATDC5 cells treated with 5,6-dichloroindirubin-3′-methoxime of Example 1 and 5-methoxylindirubin-3′-oxime of Example 2 by immunocytochemistry. In other words, the expression and localization of β-catenin in ATDC5 cells were confirmed through ICC.
# longitudinal bone = experiment: ex-vivo longitudinal bone culture, length measurement; assay type: cell-based, C57BL/6 mice; settings: for length of the longitudinal bone increased more effectively than by comparative indirubin derivatives: versus Comparative Examples 8, 9 and 10-12; for increase of the length of the long bone relative to the control group: printed as about two times (180%)
# Protocol: Longitudinal bones were isolated from 15.5 embryonic day C57BL/6 mice and incubated for 7 days in a 24-well tissue culture dish. Medium was used as Minimal Essential Medim (α-MEM, Gibco) including 10% fetal bovine serum (FBS), 1 mM beta polyglycerol disodium phosphate, 50 ng/ml ascorbic acid, 0.3 g/L-glutamine, 0.2% BSA, 100 U/ml penicillin, 100 μg/ml streptomycin. After the longitudinal bone was separated from the mouse, the longitudinal bone isolated from the medium was incubated for 24 hours, and the drug was treated. The medium and the drug (here are Example 1, Example 2, Comparative Examples 1, 7-9 and indirubin derivatives of 10-12) were changed every other day. The length of the longitudinal bone was measured before and after treatment with the drug. The longitudinal bone tissue after drug treatment was marched with PBS and fixed using 4% formaldehyde.
# In order to more precisely determine the effect of indirubin derivatives in Example 1 or Example 2 of the present invention and other indirubin derivatives on the culture of ex-vivo longintudinal bone, various indirubin derivatives (Examples 1 and 2 and comparison Example 1, 8, 9, 10-12 indirubin derivatives) were treated as in Experimental Method 6, and the length of the longitudinal bone was measured.
# FIG. 1 is a photograph of the longitudinal bone cultured at each ex-vivo when treated with indirubin induction in Example 1, Example 2, and Comparison Example 1, 8, 9, 10-12. FIG. 2 is a graph and table showing the variation in the length of the longitudinal bone measured in FIG. 1. In this case, the drooping indirubin derivatives were identical at 0.5 μM and treated in culture medium for 6 days.
# We sought to determine more accurately the effect of 6-bromoindirubin-3′-oxime (Comparative Example 6) on the culture of ex-vivo longitudinal bone. FIG. 3A is a photograph (left) of a longitudinal bone culture in ex-vivo and a graph showing the numerical value when treated with 6-bromoindirubin-3′-oxime of Comparative Example 6 (right). At that time, 0.5 μM 6-bromoindirubin-3′-oxime was treated in culture medium for 6 days. The control is longitudinal bone treated with DMSO solution instead of drug.
# [3] = oral toxicity study in mouse; settings: in vivo
# Protocol: When an indirubin derivative represented by Formula 1 (5,6-dichloroindirubin-3′-methoxime) and an indirubin derivative represented by Formula 2 (5-methoxylindirubin-3′-oxime) were orally administered to a mouse for toxicity studies, they are considered to be safe substances because the 50% lethal dose (LD 50) of them are at least 1,000 mg/kg.
# [4] = test system: ALP (alkaline phosphatase); experiment: ALP activity assay in MC3T3-E1 cells; assay type: cell-based, Mouse; settings: for increase of ALP activity: MC3T3-E1 cells, differentiation medium, 48 hours, versus control
# Protocol: (§2) The MC3T3-E1 cell (Mouse osteoblastic cell line) was cultivated under conditions of 37° C. and 5% CO2 at the minimal essential media (α-MEM) (Gibco) containing 10% prenatal serum and 1% penicillin/streptomycin. For the test of differentiation induction, cells were cultivated in α-MEM mediums containing 50 μg/ml ascorbic acid and 100 mM β-glycerophosphate.
# 5×10^4 MC3T3-E1 cells were incubated on a 24 well plate for two days and stuck. After confirming that the cells reached 100% confluency, the medications (5,6-dichloroindirubin-3′-methoxime in Example 1) were treated in the differentiation medium for 48 hours. The cells were cleaned with a phosphoric acid buffer solution and the samples harvested were treated with a buffer solution (pH 10.3) containing 50 mM Tris-chloric acid, 100 mM glisin and p-nitro phenylpospate after cell lysis. For analysis, 3 M sodium hydroxide was treated, and absorbance was measured at 405 nm. The ALP activity was quantified by measuring the protein concentration using Bradford Analyzer.
# ALP activity analysis was performed as Experimental Method 5 to determine the effect of 5,6-dichloroindirubin-3′-methoxime in Example 1 and 5-methoxylindirubin-3′-oxime in Example 2 on bone mineral density. FIG. 4 is a table showing the measured a graph showing ALP activity in cells and a table showing the degree of ALP activity in cells treated with 5,6-dichloroindirubin-3′-methoxime of Example 1 according to the present invention, 5-methoxylindirubin-3′-oxime of Example 2, indirubin derivatives of Comparative Examples 1-5 and 12. The control is the ALP activity in the cells prior to drug treatment.
# β-catenin [5] = experiment: Western blot for β-catenin stabilization in MC3T3-E1 cells; assay type: cell-based, Mouse; settings: 24 hours treatment
# Protocol: as §2
# For Western blot analysis, drugs (here are 5,6-dichloroindirubin-3′-methoxime, 5-methoxylindirubin-3′-oxime) were treated 24 hours, and MC3T3-E1 cells were cultured and harvested in a culture dish to reach 100% confluency. Harvested samples for immunoblot was performed to quantify the protein was after cell lysis, using SDA-PAGE gel using the antibody after electrophoresis.
# FIG. 5 is the result of Western blot using MC3T3-E1 cells (osteoblast cells) to confirm the effects of 5,6-dichloroindirubin-3′-methoxime of Example 1 and 5-methoxyindirubin-3′-oxime of Example 2 on the stability of β-catenin.
# [6] = test system: ATDC5 cells (chondrocytes); experiment: MTT reduction analysis; assay type: cell-based, Murine; settings: 24 hours treatment
# Protocol: as §1
# When the cells were stably attached after 5×10^3 ATDC5 cells were stuck in 96 well plate, the drug (here is 6-bromoindirubin-3′-oxime) was treated. After 24 hours, transfer to a medium containing 100 μg/ml MTT [3-(4,5-dimethylthiazol-2-yl)-2,5-diphenyletrazoliumbromide)] and incubate the cells for 2 hours before removing the growth medium. The MTT, which was reduced to purple formazan, was dissolved with DMSO and then excreted at 540 nm by ab absorbance measurement.
# FIG. 3B is a graph of MTT reduction analysis of chondrocytes after treatment of different concentration of 6-bromoindirubin-3′-oxime to confirm if the reduction in the length of longitudinal bone treated with 6-bromoindirubin-3′-oxime in Comparative Example 6 is related to the effect on the survival rate of chondrocytes.
# MTT reduction assay is a method to measure the viability of cells by analyzing the difference in absorbance due to the reduction of yellow MTT to purple formazan caused by mitochondrial enzyme reaction in living cells.
# [7] = 0.5 μM, 6 days in culture medium
SMILES,toxicity to osteoblasts and chondrocytes [1],movement of stabilized β-catenin into the nucleus (β-catenin [2]),length of the longitudinal bone increased more effectively than by comparative indirubin derivatives (longitudinal bone; [7]),increase of the length of the long bone relative to the control group (longitudinal bone) [%],"LD50 ([3]; orally administered, read-out: 50% lethal dose (LD 50)) [mg/kg]",increase of ALP activity [4] [fold],stabilization of β-catenin (β-catenin [5]),survival rate of chondrocytes ([6]; 5 μM),concentration at which growth of chondrocytes is inhibited [6] [µM],"length of the ex-vivo longitudinal bone compared to control group (longitudinal bone; 0.5 μM, 6 days in culture medium, control DMSO)",LD50 [3] [mg/kg],"effects on bone growth, bone thickness or both more significant than those of other indirubin derivatives ([4]; versus other indirubin derivatives, test not specified)"
"CO/N=C1/C(=C2/C(=O)Nc3cc(Cl)c(Cl)cc32)Nc2ccccc21 [Example 1, 5,6-dichloroindirubin-3′-methoxime]",not toxic,increase the mobility of the stabilized β-catenin into the nucleus,about 54%,~180,≥ 1000,~2,significantly induced the stabilization of β-catenin,,,,,
"O=C1Nc2cc(Br)ccc2/C1=C1/Nc2ccccc2/C1=N\O [Comparative Example 6, 6-bromoindirubin-3′-oxime]",,,,,,,,below 50%,≥ 1,reduced,,
"COc1ccc2c(c1)/C(=C1/Nc3ccccc3/C1=N\O)C(=O)N2 [Example 2, 5-methoxylindirubin-3′-oxime]",not toxic,increase the mobility of the stabilized β-catenin into the nucleus,about 54%,~180,,~2,significantly induced the stabilization of β-catenin,,,,≥ 1000,more than 30%

# Reference: patent US11459311B2, “Pharmaceutical composition containing indirubin derivative as active ingredient” (CK Regeon Inc., priority 2017, dated 2022)
